Key:
Assay in all cases: MIC by broth microdilution (NCCLS M7-A5)
[1] = system: Enterobacter cloacae B1102; settings: E. cloacae B1102
[2] = system: Enterobacter cloacae ATCC13047/CRO-R; settings: E. cloacae ATCC13047/CRO-R
[3] = system: Enterobacter cloacae M4018; settings: E. cloacae M4018
[4] = system: Enterobacter cloacae MRW; settings: E. cloacae MRW
[5] = system: Enterobacter aerogenes Zayakosky; settings: E. aerogenes Zayakosky
[6] = system: Enterobacter aerogenes B1; settings: E. aerogenes B1
[7] = system: Acinetobacter sp. J2
[8] = system: Pseudomonas aeruginosa MK1184
[9] = system: Pseudomonas aeruginosa 1973E
[10] = system: Enterobacter cloacae P99
[11] = system: Klebsiella pneumoniae CF104
[12] = system: Serratia marcescens S6
[13] = system: Stenotrophomonas malthophilia 1AC736; settings: Stenotrophomonas maltophilia 1AC736
[14] = + compound 323 and clavulanate, 4 mg/L each
[15] = + 102 + clavulanate, 4 mg/L each
[16] = + 103 + clavulanate, 4 mg/L each
[17] = + 111 + clavulanate, 4 mg/L each
[18] = + 202 + clavulanate, 4 mg/L each
[19] = + 206 + clavulanate, 4 mg/L each
[20] = + 323 + clavulanate, 4 mg/L each
[21] = + 324 + clavulanate, 4 mg/L each

CC1C(NC(=O)C(=NOCc2cc(=O)c(O)cn2O)c2csc(N)n2)C(=O)N1S(=O)(=O)O (centres unmarked) [Compound 1]
0.5 µg/mL: MIC of antibiotic [11, 16] | MIC of antibiotic ([11]; + 501 4 mg/L) | MIC of antibiotic ([11]; + clavulanate 4 mg/L) | MIC of antibiotic ([12]; + 102 + sulbactam, 4 mg/L each) | MIC of antibiotic [12, 18] | MIC of antibiotic ([12]; + 323 + sulbactam, 4 mg/L each) | MIC of antibiotic ([13]; + clavulanate 4 mg/L)
4 µg/mL: MIC of antibiotic ([7]; Acinetobacter baumannii J2, + 102 + clavulanate, 4 mg/L each) | MIC of antibiotic ([7]; Acinetobacter baumannii J2, + 111 + clavulanate, 4 mg/L each) | MIC of antibiotic ([7]; Acinetobacter baumannii J2, + 202 + clavulanate, 4 mg/L each) | MIC of antibiotic ([7]; Acinetobacter baumannii J2, + 206 + clavulanate, 4 mg/L each) | MIC of antibiotic [8, 15] | MIC of antibiotic ([8]; + 323 + sulbactam, 4 mg/L each) | MIC of antibiotic ([9]; + 102 + sulbactam, 4 mg/L each) | MIC of antibiotic [9, 16] | MIC of antibiotic [9, 17] | MIC of antibiotic [9, 18] | MIC of antibiotic [9, 19] | MIC of antibiotic ([9]; + 323 + sulbactam, 4 mg/L each) | MIC of antibiotic [10, 15] | MIC of antibiotic [10, 17] | MIC of antibiotic [10, 20] | MIC of antibiotic ([10]; + 323 + sulbactam, 4 mg/L each) | MIC of antibiotic [10, 21] | MIC of antibiotic [12, 19] | MIC of antibiotic ([12]; + 501 4 mg/L) | MIC of antibiotic ([12]; + clavulanate 4 mg/L)
0.25 µg/mL: MIC of antibiotic [11, 19] | MIC of antibiotic [12, 15] | MIC of antibiotic [12, 16] | MIC of antibiotic [12, 17] | MIC of antibiotic [12, 20] | MIC of antibiotic ([13]; + 501 4 mg/L)
16 µg/mL: MIC of antibiotic ([7]; Acinetobacter baumannii J2, + 323 + clavulanate, 4 mg/L each) | MIC of antibiotic [8, 20] | MIC of antibiotic ([9]; antibiotic alone) | MIC of antibiotic [10, 18] | MIC of antibiotic ([10]; + 501 4 mg/L)
32 µg/mL: MIC of antibiotic ([7]; Acinetobacter baumannii J2, + 324 + clavulanate, 4 mg/L each) | MIC of antibiotic ([8]; + 102 + sulbactam, 4 mg/L each) | MIC of antibiotic [10, 16] | MIC of antibiotic ([10]; + clavulanate 4 mg/L)
4 mg/L: Minimal Inhibitory Concentration of antibiotic [4, 14] | Minimal Inhibitory Concentration of antibiotic [6, 14]
16 mg/L: Minimal Inhibitory Concentration of antibiotic ([1]; + compound 206 at fixed 4 mg/L) | Minimal Inhibitory Concentration of antibiotic ([1]; + compound 501 at fixed 4 mg/L) | Minimal Inhibitory Concentration of antibiotic ([3]; + compound 501 at fixed 4 mg/L) | Minimal Inhibitory Concentration of antibiotic ([4]; + compound 206 at fixed 4 mg/L) | Minimal Inhibitory Concentration of antibiotic [5, 14] | Minimal Inhibitory Concentration of antibiotic ([6]; + compound 206 at fixed 4 mg/L)
8 mg/L: Minimal Inhibitory Concentration of antibiotic [1, 14] | Minimal Inhibitory Concentration of antibiotic [2, 14] | Minimal Inhibitory Concentration of antibiotic ([3]; + compound 206 at fixed 4 mg/L)
>22 µg/mL: MIC of antibiotic ([7]; Acinetobacter sp. J2, antibiotic alone, no inhibitor)
2 mg/L: Minimal Inhibitory Concentration of antibiotic [3, 14]
32 mg/L: Minimal Inhibitory Concentration of antibiotic ([1]; + clavulanate at fixed 4 mg/L) | Minimal Inhibitory Concentration of antibiotic ([3]; antibiotic alone) | Minimal Inhibitory Concentration of antibiotic ([4]; + clavulanate at fixed 4 mg/L) | Minimal Inhibitory Concentration of antibiotic ([4]; + compound 501 at fixed 4 mg/L) | Minimal Inhibitory Concentration of antibiotic ([6]; antibiotic alone)
2 µg/mL: MIC of antibiotic ([7]; Acinetobacter baumannii J2, + 102 + sulbactam, 4 mg/L each) | MIC of antibiotic [9, 15] | MIC of antibiotic [11, 18] | MIC of antibiotic [11, 20] | MIC of antibiotic ([13]; + 102 + sulbactam, 4 mg/L each)
>32 µg/mL: MIC of antibiotic ([7]; Acinetobacter baumannii J2, + clavulanate 4 mg/L) | MIC of antibiotic ([7]; Acinetobacter baumannii J2, antibiotic alone) | MIC of antibiotic [8, 19] | MIC of antibiotic ([8]; + 501 4 mg/L) | MIC of antibiotic ([8]; + clavulanate 4 mg/L) | MIC of antibiotic ([8]; antibiotic alone) | MIC of antibiotic ([10]; antibiotic alone) | MIC of antibiotic ([11]; antibiotic alone) | MIC of antibiotic ([12]; antibiotic alone)
8 µg/mL: MIC of antibiotic ([7]; Acinetobacter baumannii J2, + 103 + clavulanate, 4 mg/L each) | MIC of antibiotic [8, 16] | MIC of antibiotic [8, 17] | MIC of antibiotic [8, 18] | MIC of antibiotic [8, 21] | MIC of antibiotic [9, 20] | MIC of antibiotic [9, 21] | MIC of antibiotic ([9]; + 501 4 mg/L) | MIC of antibiotic ([9]; + clavulanate 4 mg/L) | MIC of antibiotic ([10]; + 102 + sulbactam, 4 mg/L each) | MIC of antibiotic [10, 19]
0.125 µg/mL: MIC of antibiotic [13, 15] | MIC of antibiotic [13, 16] | MIC of antibiotic [13, 17] | MIC of antibiotic [13, 18] | MIC of antibiotic [13, 19] | MIC of antibiotic [13, 20] | MIC of antibiotic ([13]; + 323 + sulbactam, 4 mg/L each) | MIC of antibiotic [13, 21]
>32 mg/L: Minimal Inhibitory Concentration of antibiotic ([1]; antibiotic alone) | Minimal Inhibitory Concentration of antibiotic ([2]; + clavulanate at fixed 4 mg/L) | Minimal Inhibitory Concentration of antibiotic ([2]; + compound 206 at fixed 4 mg/L) | Minimal Inhibitory Concentration of antibiotic ([2]; + compound 501 at fixed 4 mg/L) | Minimal Inhibitory Concentration of antibiotic ([2]; antibiotic alone) | Minimal Inhibitory Concentration of antibiotic ([3]; + clavulanate at fixed 4 mg/L) | Minimal Inhibitory Concentration of antibiotic ([4]; antibiotic alone) | Minimal Inhibitory Concentration of antibiotic ([5]; + clavulanate at fixed 4 mg/L) | Minimal Inhibitory Concentration of antibiotic ([5]; + compound 206 at fixed 4 mg/L) | Minimal Inhibitory Concentration of antibiotic ([5]; + compound 501 at fixed 4 mg/L) | Minimal Inhibitory Concentration of antibiotic ([5]; antibiotic alone) | Minimal Inhibitory Concentration of antibiotic ([6]; + clavulanate at fixed 4 mg/L) | Minimal Inhibitory Concentration of antibiotic ([6]; + compound 501 at fixed 4 mg/L)
<0.06 µg/mL: MIC of antibiotic ([7]; Acinetobacter baumannii J2, + 501 4 mg/L) | MIC of antibiotic [11, 17]
1 µg/mL: MIC of antibiotic ([7]; Acinetobacter baumannii J2, + 323 + sulbactam, 4 mg/L each) | MIC of antibiotic [11, 15] | MIC of antibiotic ([11]; + 102 + sulbactam, 4 mg/L each) | MIC of antibiotic ([11]; + 323 + sulbactam, 4 mg/L each) | MIC of antibiotic [11, 21] | MIC of antibiotic [12, 21] | MIC of antibiotic ([12]; antibiotic alone, no inhibitor) | MIC of antibiotic ([13]; antibiotic alone)
